Reference: patent US8895504B2, “Amylin derivatives” (priority 2008, dated 2014)
*1 amine or outer side, *2 acyl side, *3 side chain or, on linkers, in order; H or OH if unused. Where a SMILES comes first, the peptide text is derived from it. Bridges are numbered along the chain shown (N, C = ends). Side-chain parts run from the residue outwards. The star is where a group is joined. C20 diacid = O=C(O)CCCCCCCCCCCCCCCCCCC(=O)*; γGlu = O=C(O)[C@H](CCC(=O)[*:2])N[*:1]

target: T1, Amylin 3(a) receptor (human calcitonin receptor (CTa) and RAMP-3) (Homo sapiens, UniProt O60896+P30988); experiment: Luciferase assay (III), BHK Amylin 3(a)//CRE-luc cells; type: cell-based; details: BHK cells with Amylin 3(a) receptor and CRE luciferase reporter, 4 hours incubation; read-out: Potency Luciferase
T1 construct: expressed in transfected cells; host or cells: BHK570 cells, stably transfected with a CRE-luciferase reporter
T1 sequence (O60896 24-148): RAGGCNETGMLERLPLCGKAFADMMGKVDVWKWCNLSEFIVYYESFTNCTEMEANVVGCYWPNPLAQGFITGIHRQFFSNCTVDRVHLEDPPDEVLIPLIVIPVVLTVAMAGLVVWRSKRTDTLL
T1 sequence (P30988 25-474): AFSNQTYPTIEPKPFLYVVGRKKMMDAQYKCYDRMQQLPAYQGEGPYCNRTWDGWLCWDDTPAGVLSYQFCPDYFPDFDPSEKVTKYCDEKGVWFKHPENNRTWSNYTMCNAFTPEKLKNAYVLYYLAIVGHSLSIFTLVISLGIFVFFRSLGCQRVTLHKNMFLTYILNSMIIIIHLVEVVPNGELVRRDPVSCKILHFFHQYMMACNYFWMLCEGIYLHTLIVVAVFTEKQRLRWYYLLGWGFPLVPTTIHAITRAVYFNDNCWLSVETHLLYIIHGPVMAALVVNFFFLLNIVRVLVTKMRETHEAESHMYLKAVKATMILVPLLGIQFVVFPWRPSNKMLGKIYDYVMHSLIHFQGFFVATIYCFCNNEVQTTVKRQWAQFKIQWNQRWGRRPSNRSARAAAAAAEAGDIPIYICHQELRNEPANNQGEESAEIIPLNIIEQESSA
Source text: It has previously been published (Poyner D R et al 2002, Pharmacological Reviews 54(2) 233-246) that activation of Amylin receptors (coexpression of Calcitonin receptor and receptor activity modifying peptides RAMPs) by Amylin leads to an increase in the intracellular concentration of cAMP. Consequently, transcription is activated at promoters containing multiple copies of the cAMP response element (CRE). It is thus possible to measure Amylin activity by use of a CRE luciferase reporter gene introduced into BHK cells also expressing an Amylin receptor.
2. Construction of an Amylin 3(a)/CRE-luc Cell Line
A BHK570 cell line stably transfected with the human calcitonin receptor (CTa) and a CRE-responsive luciferase reportergene. The cell line was further transfected with RAMP-3, using standard methods. This turns the Calcitonin receptor into an Amylin 3(a) receptor. Methotrexate, Neomycin, and Hygromycin are selection markers for luciferase, the Calcitonin receptor, and RAMP-3, respectively.
3. Amylin Luciferase Assay
To perform activity assays, BHK Amylin 3(a)//CRE-luc cells were seeded in white 96 well culture plates at a density of about 20,000 cells/well. The cells were in 100 μl growth medium (DMEM with 10% FBS, 1% Pen/Strep, 1 mM Na-pyruvate, 250 nM Methotrexate, 500 μg/ml Neomycin, and 400 μg/ml Hygromycin). After incubation overnight at 37° C. and 5% CO2, the growth medium was replaced by 50 μl/well assay medium (DMEM (without phenol red), Glumamax™, 10% FBS, and 10 mM Hepes, pH 7,4). Further, 50 μl/well of standard or sample in assay buffer were added. After 4 hours incubation at 37° C. and 5% CO2, the assay medium with standard or sample were removed and replaced by 100 μl/well PBS. Further, 100 μl/well LucLite™ was added. The plates were sealed and incubated at room temperature for 30 minutes. Finally, luminescence was measured on a TopCounter (Packard) in SPC (single photon counting) mode.

SMILES | EC50
CC[C@H](C)[C@H](NC(=O)[C@@H]1CCCN1C(=O)CNC(=O)[C@H](Cc1ccccc1)NC(=O)[C@H](CC(N)=O)NC(=O)[C@H](CC(=O)O)NC(=O)[C@H](CO)NC(=O)[C@H](CO)NC(=O)[C@H](Cc1c[nH]cn1)NC(=O)[C@H](Cc1c[nH]cn1)NC(=O)[C@H](CC(C)C)NC(=O)[C@H](Cc1ccccc1)NC(=O)[C@H](CC(N)=O)NC(=O)[C@H](C)NC(=O)[C@H](CC(C)C)NC(=O)[C@H](CCCNC(=N)N)NC(=O)[C@H](CCC(N)=O)NC(=O)[C@@H](NC(=O)[C@H](C)NC(=O)[C@@H]1CSSC[C@H](NC(=O)[C@@H](N)CCCCN)C(=O)N[C@@H](CCCCNC(=O)[C@H](CCC(=O)O)NC(=O)[C@H](CCCNC(=N)N)NC(=O)[C@H](CCC(=O)O)NC(=O)[C@H](CCC(=O)O)NC(=O)CCCCCCCCCCCCCCCCCCC(=O)O)C(=O)N[C@@H]([C@@H](C)O)C(=O)N[C@@H](C)C(=O)N[C@@H]([C@@H](C)O)C(=O)N1)[C@@H](C)O)C(=O)N[C@@H](CC(C)C)C(=O)N1CCC[C@H]1C(=O)N1CCC[C@H]1C(=O)N[C@H](C(=O)N[C@@H](CC(N)=O)C(=O)N[C@H](C(=O)NCC(=O)N[C@@H](CO)C(=O)N[C@@H](CC(N)=O)C(=O)N[C@H](C(=O)N[C@@H](Cc1ccc(O)cc1)C(N)=O)[C@@H](C)O)C(C)C)[C@@H](C)O [Example 2, N-epsilon3-(19-carboxynonadecanoyl-Glu-Glu-Arg-Glu)-[Lys3,His17,Asp21]-pramlintide] (H-KCK([Glu-Arg-Glu-Glu-C20 diacid])TATCATQRLANFLHHSSDNFGPILPPTNVGSNTY-NH2; disulfide 2-7) | 900 pM
CC[C@H](C)[C@H](NC(=O)[C@@H]1CCCN1C(=O)CNC(=O)[C@H](Cc1ccccc1)NC(=O)[C@H](CC(N)=O)NC(=O)[C@H](CC(N)=O)NC(=O)[C@H](CO)NC(=O)[C@H](CO)NC(=O)[C@H](Cc1c[nH]cn1)NC(=O)[C@@H]1CCCN1C(=O)[C@H](CC(C)C)NC(=O)[C@H](Cc1ccccc1)NC(=O)[C@H](CC(N)=O)NC(=O)[C@H](C)NC(=O)[C@H](CC(C)C)NC(=O)[C@H](CCCNC(=N)N)NC(=O)[C@H](CCC(N)=O)NC(=O)[C@@H](NC(=O)[C@H](C)NC(=O)[C@@H]1CSSC[C@H](NC(=O)[C@H](CCCCN)NC(=O)[C@H](CCCNC(=N)N)NC(=O)CC[C@H](NC(=O)CCCCCCCCCCCCCCCCCCC(=O)O)C(=O)O)C(=O)N[C@@H](CC(N)=O)C(=O)N[C@@H]([C@@H](C)O)C(=O)N[C@@H](C)C(=O)N[C@@H]([C@@H](C)O)C(=O)N1)[C@@H](C)O)C(=O)N[C@@H](CC(C)C)C(=O)N1CCC[C@H]1C(=O)N1CCC[C@H]1C(=O)N[C@H](C(=O)N[C@@H](CC(N)=O)C(=O)N[C@H](C(=O)NCC(=O)N[C@@H](CO)C(=O)N[C@@H](CC(N)=O)C(=O)N[C@H](C(=O)N[C@@H](Cc1ccc(O)cc1)C(N)=O)[C@@H](C)O)C(C)C)[C@@H](C)O [Example 21, N-alpha-[(S)-4-Carboxy-4-(19-carboxynonadecanoylamino)butyryl]-Arg-[Pro17]-pramlintide] ({C20 diacid-γGlu}-RKCNTATCATQRLANFLPHSSNNFGPILPPTNVGSNTY-NH2; disulfide 3-8) | 2000 pM
CC[C@H](C)[C@H](NC(=O)[C@@H]1CCCN1C(=O)CNC(=O)[C@H](Cc1ccccc1)NC(=O)[C@H](CC(N)=O)NC(=O)[C@H](CC(N)=O)NC(=O)[C@H](CO)NC(=O)[C@H](CO)NC(=O)[C@H](Cc1c[nH]cn1)NC(=O)[C@H](C)NC(=O)[C@H](CC(C)C)NC(=O)[C@H](Cc1ccccc1)NC(=O)[C@H](CC(N)=O)NC(=O)[C@H](C)NC(=O)[C@H](CC(C)C)NC(=O)[C@H](CCCNC(=N)N)NC(=O)[C@H](CCC(N)=O)NC(=O)[C@@H](NC(=O)[C@H](C)NC(=O)[C@@H]1CSSC[C@H](NC(=O)CC[C@H](NC(=O)CCCCCCCCCCCCCCCCCCC(=O)O)C(=O)O)C(=O)N[C@@H](CC(N)=O)C(=O)N[C@@H]([C@@H](C)O)C(=O)N[C@@H](C)C(=O)N[C@@H]([C@@H](C)O)C(=O)N1)[C@@H](C)O)C(=O)N[C@@H](CC(C)C)C(=O)N1CCC[C@H]1C(=O)N1CCC[C@H]1C(=O)N[C@H](C(=O)N[C@@H](CC(N)=O)C(=O)N[C@H](C(=O)NCC(=O)N[C@@H](CO)C(=O)N[C@@H](CC(N)=O)C(=O)N[C@H](C(=O)N[C@@H](Cc1ccc(O)cc1)C(N)=O)[C@@H](C)O)C(C)C)[C@@H](C)O [Example 12, N-alpha-[(S)-4-Carboxy-4-(19-carboxynonadecanoylamino)butyryl]-[Ala17]-pramlintide (2-37)] ({C20 diacid-γGlu}-CNTATCATQRLANFLAHSSNNFGPILPPTNVGSNTY-NH2; disulfide 1-6) | 100 pM

The next lines start with the values.

EC50 | SMILES
100 pM | CC[C@H](C)[C@H](NC(=O)[C@@H]1CCCN1C(=O)CNC(=O)[C@H](Cc1ccccc1)NC(=O)[C@H](CC(N)=O)NC(=O)[C@H](CC(N)=O)NC(=O)[C@H](CO)NC(=O)[C@H](CO)NC(=O)[C@H](Cc1c[nH]cn1)NC(=O)[C@H](Cc1c[nH]cn1)NC(=O)[C@H](CC(C)C)NC(=O)[C@H](Cc1ccccc1)NC(=O)[C@H](CC(=O)O)NC(=O)[C@H](C)NC(=O)[C@H](CC(C)C)NC(=O)[C@H](CCCNC(=N)N)NC(=O)[C@H](CCC(N)=O)NC(=O)[C@@H](NC(=O)[C@H](C)NC(=O)[C@@H]1CSSC[C@H](NC(=O)CC[C@H](NC(=O)CCCCCCCCCCCCCCCCCCC(=O)O)C(=O)O)C(=O)N[C@@H](CC(N)=O)C(=O)N[C@@H]([C@@H](C)O)C(=O)N[C@@H](C)C(=O)N[C@@H]([C@@H](C)O)C(=O)N1)[C@@H](C)O)C(=O)N[C@@H](CC(C)C)C(=O)N1CCC[C@H]1C(=O)N1CCC[C@H]1C(=O)N[C@H](C(=O)N[C@@H](CC(N)=O)C(=O)N[C@H](C(=O)NCC(=O)N[C@@H](CO)C(=O)N[C@@H](CC(N)=O)C(=O)N[C@H](C(=O)N[C@@H](Cc1ccc(O)cc1)C(N)=O)[C@@H](C)O)C(C)C)[C@@H](C)O [Example 43, N-alpha-[(S)-4-Carboxy-4-(19-carboxynonadecanoylamino)butyryl]-[Asp14,His17]-pramlintide (2-37)] ({C20 diacid-γGlu}-CNTATCATQRLADFLHHSSNNFGPILPPTNVGSNTY-NH2; disulfide 1-6)
100 pM | CC[C@H](C)[C@H](NC(=O)[C@@H]1CCCN1C(=O)CNC(=O)[C@H](Cc1ccccc1)NC(=O)[C@H](CC(N)=O)NC(=O)[C@H](CC(N)=O)NC(=O)[C@H](CO)NC(=O)[C@H](CO)NC(=O)[C@H](Cc1c[nH]cn1)NC(=O)[C@H](Cc1c[nH]cn1)NC(=O)[C@H](CC(C)C)NC(=O)[C@H](Cc1ccccc1)NC(=O)[C@H](CC(N)=O)NC(=O)[C@H](C)NC(=O)[C@H](CC(C)C)NC(=O)[C@H](CCCNC(=N)N)NC(=O)[C@H](CCC(N)=O)NC(=O)[C@@H](NC(=O)[C@H](C)NC(=O)[C@@H]1CSSC[C@H](NC(=O)[C@H](CCCNC(=N)N)NC(=O)[C@H](Cc2c[nH]cn2)NC(=O)[C@H](CCCNC(=N)N)NC(=O)CC[C@H](NC(=O)CCCCCCCCCCCCCCCCCCC(=O)O)C(=O)O)C(=O)N[C@@H](CC(N)=O)C(=O)N[C@@H]([C@@H](C)O)C(=O)N[C@@H](C)C(=O)N[C@@H]([C@@H](C)O)C(=O)N1)[C@@H](C)O)C(=O)N[C@@H](CC(C)C)C(=O)N1CCC[C@H]1C(=O)N1CCC[C@H]1C(=O)N[C@H](C(=O)N[C@@H](CC(N)=O)C(=O)N[C@H](C(=O)NCC(=O)N[C@@H](CO)C(=O)N[C@@H](CC(N)=O)C(=O)N[C@H](C(=O)N[C@@H](Cc1ccc(O)cc1)C(N)=O)[C@@H](C)O)C(C)C)[C@@H](C)O [Example 70, N-alpha-[(S)-4-Carboxy-4-(19-carboxynonadecanoylamino)butyryl]-Arg-His[Arg1,His17]-pramlintide] ({C20 diacid-γGlu}-RHRCNTATCATQRLANFLHHSSNNFGPILPPTNVGSNTY-NH2; disulfide 4-9)
